The values that follow come from patent US9878041B2, “Cyanoacrylate tissue adhesives” (Adhezion Biomedical, LLC, priority 2007, dated 2018).

A short description of series [1]: In vitro accelerated degradation study of cured adhesive films. In kind it is physicochemical. To be noted: thin films in 0.05N NaOH, 37° C., 3, 7, 14 and 21 days; FIG. 1. How it is done: In vitro accelerated degradation studies have been performed to evaluate the degradation rate of various cyanoacrylate adhesives formulated with PEG and without PEG. 20 μl of cyanoacrylate (CA) derivatives and CA derivatives/PEG (MW=600) formulations were spread as a thin layer on the glass microscope slides and allowed to cure overnight at room temperature. […] The films were collected at 3, 7, 14, and 21 days and washed with distilled water two times. The washed films were freeze-dried and weighed (W1) (n=3). […] 2. Tissue Bond Strength Study

Series [2] relates to hind limb muscles of adult Sprague-Dawley rats. Put plainly: In vivo biocompatibility and degradation, macroscopic and IHC, incision closure. The text has this: Small surgical incisions (0.2 cm in depth, 1 cm in length) were made in both hind limb muscles of adult Sprague-Dawley rats (n=4). One incision was closed by 1 drop of various cyanoacrylate formulations dispensed through a surgical syringe needle (25 G) and the other was closed by absorbable suture (VICRYL, Ethicon) with and without injection of equivalent volumes of PEG included in cyanoacrylate formulations as controls. In order to ensure proper identification of the injury sites, a single non-absorb-able suture was placed adjacent to each repaired incision site.
At 7 days, 4 weeks, and 12 weeks post-surgery, tissue explants containing the repaired incision sites and surrounding muscle tissue were retrieved. The explants were photographed to document the macroscopic tissue response to the various cyanoacrylate formulations and suture controls (FIGS. 3A-3H (7 days), 4A-4H (4 weeks), and 5A-5H (12 weeks)). Identification of specific cells types associated with wound healing and inflammation was performed by histological sectioning and immunohistochemical (IHC) staining. Tissue explants were embedded in Optimal cutting temperature (OCT) compound and sectioned perpendicular to the surface of the repaired muscle tissue. Sections ([…] thick) were transferred to glass microscope slides, fixed with methanol, permeabilized with 0.025% Triton in PBS solution, and stained with primary antibodies directed against vimentin (fibroblasts) and rat macrophages, and Alexa-594 conjugated secondary antibodies. DAPI mounting media was used to counterstain all cellular nuclei. Samples were imaged by fluorescence microscopy (FIGS. 6A-6P, 7A-7P, 8A-8P). Specific cell types are identified in red, sutures and various cyanoacrylate adhesives are shown in green, and cellular nuclei are shown in blue. […]

The test system of series [3] is Human dermal fibroblasts. Put plainly: Cell adhesion to polymerized cyanoacrylates (live/dead staining). In kind it is cell-based. As to conditions: 48 hours culture; FIG. 10. The method, then:
2 μl aliquots of various cyanoacrylate formulations with and without PEG were applied to thin collagen films in 24 well plates and allowed to cure overnight at room temperature. Human dermal fibroblasts were seeded on the collagen film/polymerized adhesive surfaces at 8×10^4 cells/well and cultured for 48 hours. The cells were stained with fluorescein diacetate and propidium iodide to visualize live (green) and dead (red) cells respectively. FIGS. 10A (OCA+MCA), 10B (OCA+MCA/PEG), 10E (MCA), and 10F (MCA/PEG) are phase contrast images (black and white) showing the interface between the cyanoacrylate adhesives and the surrounding collagen films and corresponding fluorescent images FIGS. 10C (OCA+MCA), 10D (OCA+MCA/PEG), 10G (MCA), and 10H (MCA/PEG) showing the location of adherent cells.

Series [4] has as its system Escherichia coli. Put plainly: Antibacterial activity by agar diffusion method. The arrangement: key: c: Inhibition of growth not observed. As to conditions: 10 mg sample. Format: cell-based. How it is done: Antibacterial activity of polymyxin B-loaded PBCA nanoparticles was measured indirectly by the agar diffusion method. 30 ml of nutrient agar was added into each of four culture plates (90 mm diameter, 15 mm high). After solidifying, a cylindrical hole (13 mm in diameter) was made in the center of the plate and the contents were removed. 10 mg of polymyxin B, PBCA nanoparticles, and two polymyxin B-loaded PBCA nanoparticles (Poly BIPBCA-1 and 2) were added into a hole of each plate, respectively and a few drops of molten agar were added to fix the samples. The plate were inoculated with Escherichia coli and incubated at 37° C. for 24 hours and the zone of inhibition was determined (FIGS. 13A-13D).
To evaluate the duration of antibacterial activity of each sample, the content of each hole was removed after 24 hours of incubation and transferred to a hole of a freshly prepared plate, incubated again for 24 hours and the zone of inhibition measured. This procedure was continuously repeated until the inhibition of growth was no longer observed.

The subject of series [5] is Human dermal fibroblast (HDF) cells. Put plainly: In vitro cytotoxicity of adhesive-conditioned media (MTT assay). In kind it is cell-based. To be noted: ACM collected at 2 days; HDF cultured 2 days; FIG. 9. How it is done:
2 μl of various CA formulations were applied on thin collagen films in 12 well plates and allowed to polymerize completely overnight at room temperature. One ml of […] (DMEM) including 10% Serum and 1% Penicillin/Streptomycin was added into each well and incubated at 37° C. in a humidified CO2 incubator to simulate adhesive degradation. Media samples were collected at 2, 7, and 14 days and these adhesive-conditioned media (ACM) were stored at −20° C. until use. Human dermal fibroblast (HDF) cells were seeded in new 12-well culture plates at a density of 8×10^4 cells/well and cultured for 24 hours to allow cell attachment. The media was replaced with the stored ACM and cultured for 2 days at 37° C. to evaluate the in vitro cytotoxicity of the various CA derivatives. Cell cytotoxicity by the degraded CA adhesives in ACM was evaluated by MTT assay. The principle of this assay is the addition of a dye which is degraded by enzymes present in living cells, resulting in the formation of a colored product. The product concentration, which is generally directly proportional to the number of viable cells, is assayed by spectrophotometry.

The mark [6] stands for this setting: 4 weeks post-surgery, one value per rat.
Setting [7] is: 7 days post-surgery, one value per rat.
Where [8] appears, read: 7 days post-surgery, one value per rat (Rat No. 1-4), star grades not defined.
The mark [9] stands for this setting: Table IV, 4 weeks post-surgery (12 weeks), one value per rat.

As for methoxyisopropylcyanoacrylate [MCA], in series [1], the “% degradation in vitro” value is recorded as “significantly increased degradation”. Besides, the Degree of inflammation result in series [2] (setting [6]), in series [2] (setting [8]) and in series [2] (setting [9]) was “no” throughout. Moreover, the Vessel formation entry in series [2] (setting [6]), in series [2] (setting [7]) and in series [2] (setting [9]) was “no” each time. In series [2] (Table IV, 4 weeks post-surgery (12 weeks), one value per rat, IHC), the No. of macrophages stood at 0. Further, the “fibroblast adhesion to polymerized adhesive surface” value in series [3] is recorded as “readily adhered in large numbers”.

Take Polymyxin B: the “Inhibition zone: Diameter (mm)” value is given as 36 mm in series [4] (day 1, includes original 13 mm sample size); 38.3 mm in series [4] (day 2 (sample moved to fresh plate every 24 hours), includes 13 mm sample size); 28 mm in series [4] (day 3, includes 13 mm sample size); 25.1 mm in series [4] (day 4, includes 13 mm sample size); 22 mm in series [4] (day 5, includes 13 mm sample size); “c” in series [4] (day 6).

Consider `C=C(C#N)C(=O)OCCCCCCCC` [OCA, octylcyanoacrylate], for which the Vessel formation result in series [2] (setting [6]), in series [2] (setting [7]) and in series [2] (setting [9]) was “no” throughout. The “macroscopic inflammation and swelling of tissue explants” value in series [2] (7 days post-surgery) is “mild inflammation and swelling”. Further, the Degree of inflammation result in series [2] (setting [8]) and in series [2] (setting [9]) was “no” each time. In addition, the “cytotoxicity of adhesive-conditioned media (% cell viability)” value in series [5] is listed as “not cytotoxic except for the ACM from OCA”.
